The values below come from patent US20240209388A1, “EXPRESSION VECTOR OF GLYPHOSATE-RESISTANT GENES GR79 AND GAT, HIGH GLYPHOSATE-RESISTANT CORN, AND DETECTION METHOD THEREFOR” (BIOTECHNOLOGY RESEARCH INSTITUTE, CHINESE ACADEMY OF …, priority 2021, published 2024).

Entries after “also recorded” stand apart in the source; their conditions may differ. Where two headings read alike, the source gives them in different places.

For data set [1], the system named is non-transgenic control corn. Type of data set: in vivo. The note with it: high dose on the pesticide registration tag, four to six leaves, surveyed 1, 2, 4 weeks after application. The source says:
(§1) transgenic corn to non-target herbicide 3 types of herbicides were set in this test, i.e., mesotrione· propisochlor atrazine SC (3.5% mesotrione, 15% propisochlor, and 15% atrazine) commonly used in corn field, glufosinate-ammonium (20% active ingredient) sensitive to corn, and haloxyfop-R-methyl (10.8% active ingredient), respectively. 4 treatments were set: (1) free of spraying herbicide; (2) spraying mesotrione· propisochlor atrazine SC; (3) spraying glufosinate-ammonium; and (4) spraying haloxyfop-R-methyl. The spraying dose is a high dose on the pesticide registration tag. Stems and leaves were sprayed when corn grew to four to six leaves. Seedling rate and symptom of pesticide damage were surveyed 1, 2, and 4 weeks later after application, respectively.

For data set [2], the system named is bivalent GAT and GR79 transgenic herbicide-resistant corn. Type of data set: in vivo. The note with it: high dose on the pesticide registration tag, four to six leaves, surveyed 1, 2, 4 weeks after application.
Excerpt: as §1

The next data set deals with transgenic cotton. The settings on record: T1 generation, solution diluted to 1/200 (0.205 g/100 ml), 450 L/hectare; cited from earlier work.
A further data set relates to transgenic corn GG2. Kind of data set: Field glyphosate tolerance of the transgenic corn event GG2. Type of data set: in vivo, Zea mays. The note with it: for plant height 1 week BC4 / plant height 1 week BC5: 1 week after application; for plant height 2 weeks BC4 / plant height 2 weeks BC5: 2 weeks after application; for plant height 4 weeks BC4 / plant height 4 weeks BC5: 4 weeks after application. The protocol:
Field herbicide tolerance of transgenic corn was tested in accordance with the Test for Environmental Safety of Transgenic Plant and its Products Part 1 of Herbicide-Resistant Corn: herbicide Tolerance (No. 953 bulletin-11.1-2007 of the Ministry of Agriculture and Rural Affairs).
The test material was the transgenic corn GG2, and the corresponding non-transgenic corn. The herbicide was glyphosate. […] An isolation belt (a width of 1.0 m) was set among the blocks. Treatments include: transgenic corn not sprayed with a herbicide, transgenic corn sprayed with a target herbicide (glyphosate), non-transgenic corn not sprayed with a herbicide, and non-transgenic corn sprayed with a target herbicide (glyphosate). The application amount of the herbicide was 1-fold, 2 times, and 4 times the medium dose (active ingredient: 900 g/hectare) on the pesticide registration tag, respectively. The herbicide was applied at the four to five-leaf stage of corn. The rate of survival, plant height, and symptom of pesticide damage were surveyed and recorded 1, 2, and 4 weeks later after application, respectively. The symptom of pesticide damage was graded according to GB/T 19780.42. Glyphosate in the transgenic corn GG2, and in its corresponding transgenic control, and non-transgenic control was identified.

In a further data set the test system is transgenic maize. The note with it: AM79 single-gene transgenic maize; cited from earlier work.
Data set [3] deals with bivalent GAT and GR79 transgenic corn. Kind of data set: Screening of high glyphosate-resistant events of bivalent GAT and GR79 transgenic corn. The settings on record: for transformation events free of symptom of pesticide damage: 4 weeks after application. Type of data set: in vivo, Zea mays. The protocol:
2 times the medium dose of glyphosate (active ingredient: 1800 g/hectare) was continuously applied, and survey was conducted 4 weeks later after application, 63 transformation events were free of symptom of pesticide damage. The T2 generation of materials of the screened 63 transformation events were sown and sprayed with glyphosate at the four to five-leaf stage in a spraying amount of 1-fold, 2 times, and 4 times the medium dose (active ingredient: 900 g/hectare) on the pesticide registration tag. The rate of survival and symptom of pesticide damage of each transformation event were surveyed and recorded 4 weeks later after application. 47 transformation events were free of symptom of pesticide damage after sprayed with 4 times the medium dose of glyphosate and thus, were high glyphosate-resistant materials, accounting for 61.84% of the 76 positive transgenic materials. The screening concentration continued to be increased; when it was up to 8 times (active ingredient: 7200 g/hectare) the medium dose, 6 transformation events were not affected.

Data set [4] deals with monovalent GAT transgenic corn. In words: Screening of high glyphosate-resistant events of monovalent GAT transgenic corn. Format: in vivo, Zea mays. The source says: To determine the effect of the combined use of double genes on high glyphosate tolerance, the transgenic corn transformed with the single gene GAT was subjected to glyphosate tolerance test according to the same screening process, 8 transformation events which could be resistant to 4 times glyphosate were obtained finally, accounting for 21.05% of the 38 positive transgenic materials. By comparison of the two, the bivalent GAT and GR79 transgenic glyphosate-resistant corn was easier to obtain high glyphosate-resistant materials.

Where [5] appears, read: GG2 BC4, 1-fold the medium dose.
Where [6] appears, read: GG2 BC4, 2 times the medium dose.
Where [7] appears, read: GG2 BC4, 4 times the medium dose.
Where [8] appears, read: GG2 BC5, 1-fold the medium dose.
Where [9] appears, read: GG2 BC5, 2 times the medium dose.
The mark [10] stands for this setting: GG2 BC5, 4 times the medium dose.
Setting [11] is: 8 times the medium dose (active ingredient: 7200 g/hectare).

As to `CP(=O)(O)CCC(N)C(=O)O` (centres unmarked) [glufosinate-ammonium], the “seedling rate and symptom of pesticide damage” value in data set [1] is on record as “died”; in data set [2], “died”; in data set [2] (listed as Glufosinate-ammonium), “sensitive”.

As for `CC(C)N.O=C(O)CNCP(=O)(O)O` [glyphosate isopropylamine], the survival rate result in the data set on transgenic cotton is “more than 84%”.

For `O=C(O)CNCP(=O)(O)O` [glyphosate], the “plant height versus transgenic corn not sprayed” value with transgenic corn GG2 (GG2, 1-fold, 2 and 4 times the medium dose) is “no significant difference”. The symptom of damage result with transgenic corn GG2 (GG2, 1-fold, 2 and 4 times the medium dose, each stage, two consecutive generations) is “free of symptom of damage”. Besides, the “plant height 1 week BC4” value is reported as 58.52 cm in the data set on transgenic corn GG2 (GG2 BC4, 1-fold the medium dose (900 g active ingredient/hectare)); 51.24 cm in the data set with transgenic corn GG2 (setting [6]); 59.81 cm with transgenic corn GG2 (setting [7]). For the same molecule, the “plant height 2 weeks BC4” value was 85.59 cm in the data set on transgenic corn GG2 (setting [5]), 79.38 cm with transgenic corn GG2 (setting [6]) and 88.41 cm in the data set on transgenic corn GG2 (setting [7]). The “plant height 4 weeks BC4” value with transgenic corn GG2 (setting [5]) is 158.39 cm; with transgenic corn GG2 (setting [6]), 147.75 cm; in the data set with transgenic corn GG2 (setting [7]), 158.53 cm. Moreover, the “plant height 1 week BC5” value was 33.87 cm with transgenic corn GG2 (setting [8]), 33.11 cm with transgenic corn GG2 (setting [9]) and 34.65 cm in the data set on transgenic corn GG2 (setting [10]). The “plant height 2 weeks BC5” value was determined as 51.71 cm with transgenic corn GG2 (setting [8]), 54.29 cm in the data set with transgenic corn GG2 (setting [9]) and 53.78 cm in the data set on transgenic corn GG2 (setting [10]). Moreover, the “plant height 4 weeks BC5” value with transgenic corn GG2 (setting [8]) is reported as 136.37 cm; with transgenic corn GG2 (setting [9]) it was 139.65 cm; in the data set on transgenic corn GG2 (setting [10]), 137.39 cm. Moreover, the “glyphosate dose GG2 is resistant to” value in the data set with transgenic corn GG2 (medium dose 900 g active ingredient/hectare) is given as 4 times the medium dose. Moreover, the “tolerated dose (active ingredient)” value in the data set with transgenic maize is on record as 3600 g/hectare. Moreover, the “high glyphosate-resistant materials as share of the 76 positive transgenic materials” value in data set [3] (4 times the medium dose) was determined as 61.84%. Moreover, the “transformation events not affected” value in data set [3] (setting [11]) came to 6. Besides, the “harm by glyphosate during multi-generation screening” value in data set [3] (GG2 transformation event) is on record as “not endangered by glyphosate”. In addition, the “transformation events free of symptom of pesticide damage” value in data set [3] (T1, 2 times the medium dose (active ingredient: 1800 g/hectare)) was determined as 63; in data set [3] (T2 of 63 events, 4 times the medium dose), 47. The molecule further registered a survival transformation events in data set [3] (T1 generation of 76 double-positive events, four-leaf stage, medium dose (active ingredient: 900 g/hectare)) of 72. Also, the “rate of zero symptom of pesticide damage” value in data set [3] (T1 generation of 76 double-positive events, medium dose (active ingredient: 900 g/hectare)) is on record as 94.7%. Moreover, the “resistant events as share of the 38 positive transgenic materials” value in data set [4] (4 times glyphosate) was 21.05%. For the same molecule, in data set [4] (setting [11]), the plant survival entry is given as “no survival plant”. Further, in data set [4] (of 38 positive single-gene GAT materials, 4 times the medium dose), the “transformation events resistant to 4 times glyphosate” value came out at 8. Further, the “leaf symptoms of pesticide damage” value in data set [4] (partial high-resistant GAT events, a few days after 4 times the medium dose) was “mild symptoms of herbicide damage; also recorded: mild symptoms of pesticide damage”.

On to `COC(=O)[C@@H](C)Oc1ccc(Oc2ncc(C(F)(F)F)cc2Cl)cc1` [haloxyfop-R-methyl], for which the “seedling rate and symptom of pesticide damage” value in data set [1] is on record as “died”.
